# Test results: BindingDB's records for PubMed 36346645 (University of Copenhagen, 2022)
# Biological target: Calcium/calmodulin-dependent protein kinase type II subunit alpha (Rattus norvegicus, UniProt P11275)
# Assay: Displacement of [3H]NCS-382 from CaMK2alpha in rat brain cortical membrane homogenates measured after 1 hr by TopCount scintillation counting method
# Chain of Calcium/calmodulin-dependent protein kinase type II subunit alpha (P11275 whole entry): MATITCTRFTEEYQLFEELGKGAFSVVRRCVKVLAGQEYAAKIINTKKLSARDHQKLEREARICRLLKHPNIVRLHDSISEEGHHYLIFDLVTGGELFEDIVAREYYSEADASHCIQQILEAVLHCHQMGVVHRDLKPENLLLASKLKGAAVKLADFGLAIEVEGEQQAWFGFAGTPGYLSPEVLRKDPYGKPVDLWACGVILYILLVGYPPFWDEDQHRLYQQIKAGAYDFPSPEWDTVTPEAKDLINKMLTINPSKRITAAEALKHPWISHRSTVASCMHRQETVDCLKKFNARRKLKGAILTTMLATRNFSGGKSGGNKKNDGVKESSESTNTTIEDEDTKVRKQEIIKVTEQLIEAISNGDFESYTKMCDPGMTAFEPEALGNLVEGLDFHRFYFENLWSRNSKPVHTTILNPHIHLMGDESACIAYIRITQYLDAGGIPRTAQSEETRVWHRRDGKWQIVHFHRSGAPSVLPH
compound,measurement,value
O=C(O)/C=C1\CCCc2cc(I)ccc2C1O (stereo unspecified),Ki,50 nM
